Results on 15 compounds are retold here after PubChem BioAssay (NCI).

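Protocol summary: plate cells (96-well), add compound at 5 concentrations, incubate 48 h, interpolate endpoints linearly. GI50: concentration for 50% inhibition of growth. Definition used: TGI = concentration required for complete inhibition of growth.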 Some results are limits rather than exact numbers.

Some test systems named below: NCI-H226 lung; HL-60(TB) leukemia; OVCAR-5 ovarian; ACHN renal; SNB-19 CNS; UO-31 renal; UACC-62 melanoma; NCI-H460 lung; HCC-2998 colon; T-47D breast.
What all share (assay): inhibition of tumour cell growth, NCI panel, 48 h

For the compound `Cc1cc(C)nc(NS(=O)(=O)c2ccc(Nc3c4ccccc4nc4c(C(=O)N5CCN(CCOS(C)(=O)=O)CC5)ccc(Cl)c34)cc2)n1`, the TGI in the assay with NCI-H226 lung, in the assay with HL-60(TB) leukemia, in the assay with OVCAR-5 ovarian, in the assay with ACHN renal, with SNB-19 CNS and in the assay with UO-31 renal was over 100 µM throughout. The TGI in the assay with UACC-62 melanoma, in the assay on NCI-H460 lung and in the assay on HCC-2998 colon was over 100 µM each time.
As for `O=C(c1ccccc1)[C@H]1Nc2cnccc2C2c3ccccc3CC21` (stereo partly drawn), the TGI with NCI-H226 lung is 20.2 µM; in the assay with HL-60(TB) leukemia, 23.2 µM; in the assay on OVCAR-5 ovarian it was 74.1 µM; in the assay on ACHN renal it was 37.1 µM; in the assay with SNB-19 CNS, over 100 µM; with UO-31 renal, over 40.4 µM. Besides, the TGI with UACC-62 melanoma is over 58.8 µM; in the assay on NCI-H460 lung, 33.9 µM; in the assay with HCC-2998 colon, over 100 µM.
Turning to `COC(=O)/C(=N\NC(=S)NN)C(C(=O)C(=O)Nc1ccccc1C(N)=O)c1nc2ccccc2[nH]c1=O` (stereo not drawn), the TGI in the assay on NCI-H226 lung, in the assay on OVCAR-5 ovarian, in the assay on ACHN renal, with SNB-19 CNS, with UO-31 renal and in the assay with UACC-62 melanoma was over 100 µM in each case. Also, the TGI with HCC-2998 colon is over 100 µM.
On to `O=c1c2cc3c(=O)n(CCc4ccccc4CO)c(=O)c3cc2c(=O)n1CCc1ccccc1CO`, for which the TGI with NCI-H226 lung, in the assay on HL-60(TB) leukemia, in the assay with ACHN renal, with SNB-19 CNS, with UO-31 renal and in the assay on UACC-62 melanoma was over 100 µM each time. This compound showed a TGI in the assay on NCI-H460 lung of over 100 µM.
As for `CCCC[C@@H]1CCN2C[C@@H](O)[C@@H](O)[C@H]2[C@@H]1O`, the TGI in the assay on NCI-H226 lung, in the assay on HL-60(TB) leukemia, with OVCAR-5 ovarian, in the assay with ACHN renal, in the assay with SNB-19 CNS and with UO-31 renal was over 100 µM each time. For the same compound, the TGI in the assay with UACC-62 melanoma, in the assay with NCI-H460 lung and in the assay with HCC-2998 colon was over 100 µM in each case.
Consider `NC(CCSCC(F)F)C(=O)O` (stereo not drawn), for which the TGI with NCI-H226 lung, in the assay with HL-60(TB) leukemia, in the assay with OVCAR-5 ovarian, in the assay with ACHN renal, in the assay on SNB-19 CNS and with UO-31 renal was over 100 µM each time. The TGI in the assay with UACC-62 melanoma, in the assay with NCI-H460 lung and in the assay with HCC-2998 colon was over 100 µM each time.
With `CCOP(=O)(OCC)c1cc(-c2ccccc2)ccc1N`, the TGI in the assay on OVCAR-5 ovarian, with ACHN renal, in the assay with SNB-19 CNS, in the assay on UO-31 renal, with UACC-62 melanoma and in the assay with NCI-H460 lung was over 100 µM in each case. In the assay with HCC-2998 colon, this compound registered a TGI of over 100 µM.
Turning to `N#CC(C#N)=Cc1cccc(Oc2ccccc2)c1`, the TGI is over 69.1 µM in the assay on NCI-H226 lung; 47.3 µM in the assay with HL-60(TB) leukemia; over 100 µM in the assay on OVCAR-5 ovarian; 34.1 µM in the assay with ACHN renal; 59.4 µM with SNB-19 CNS; 30.8 µM in the assay on UO-31 renal. Besides, the results for the TGI with UACC-62 melanoma, in the assay with NCI-H460 lung and in the assay on HCC-2998 colon were 53.3 µM, 61 µM and over 62.8 µM, respectively.
As for `CCOC(=O)C(NC(=O)c1ccc(N=NN(C)C)cc1)C(C)C` (stereo not drawn), the TGI with NCI-H226 lung, in the assay on HL-60(TB) leukemia, in the assay on OVCAR-5 ovarian, in the assay on ACHN renal, with SNB-19 CNS and with UO-31 renal was over 100 µM throughout. Moreover, the TGI with UACC-62 melanoma, in the assay on NCI-H460 lung and in the assay with HCC-2998 colon was over 100 µM in each case.
`Brc1ccc2c(c1)-c1nc3c(cc1CC2)CCc1ccc(Br)cc1-3`: the TGI in the assay on NCI-H226 lung, with OVCAR-5 ovarian, in the assay on ACHN renal, in the assay with SNB-19 CNS, with UO-31 renal and in the assay on T-47D breast was over 100 µM in each case. The TGI in the assay with NCI-H460 lung and in the assay with HCC-2998 colon was over 100 µM each time.
On to `CC1(C)OC(CCO)CN1C(=O)OCc1ccccc1` (stereo not drawn), for which the TGI in the assay with NCI-H226 lung, in the assay on HL-60(TB) leukemia, in the assay with OVCAR-5 ovarian, in the assay on ACHN renal, with SNB-19 CNS and in the assay on UO-31 renal was over 100 µM in each case. For the same compound, the TGI in the assay on UACC-62 melanoma, in the assay with NCI-H460 lung and in the assay with HCC-2998 colon was over 100 µM each time.
For the compound `COC1OC2COC(C)(C)OC2C2OC(C)(C)OC12` (stereo not drawn), the TGI was 76.2 µM with NCI-H226 lung; over 100 µM in the assay with OVCAR-5 ovarian; over 100 µM in the assay on ACHN renal; 54.4 µM in the assay with SNB-19 CNS; over 100 µM in the assay on UO-31 renal; over 100 µM in the assay on T-47D breast. Besides, the TGI in the assay on UACC-62 melanoma and in the assay on HCC-2998 colon was over 100 µM throughout.
With `CCN(CC(=O)O)CC(=O)O`, the TGI in the assay with NCI-H226 lung, with OVCAR-5 ovarian, in the assay with ACHN renal, with SNB-19 CNS, in the assay with UO-31 renal and in the assay on T-47D breast was over 100 µM in each case. Also, the TGI in the assay with UACC-62 melanoma, in the assay with NCI-H460 lung and with HCC-2998 colon was over 100 µM throughout.
Turning to `O=C1c2c(c3c4ccc(Br)cc4oc3c3[nH]c4ccccc4c23)C(=O)N1O`, the GI50 in the assay with NCI-H226 lung was 2.34 µM; in the assay with ACHN renal it was 1.11 µM; in the assay with SNB-19 CNS, 2.14 µM; with T-47D breast, 1.92 µM; with UACC-62 melanoma it was 1.52 µM; in the assay on HCC-2998 colon, 1.94 µM. Also, the TGI is over 100 µM in the assay with NCI-H226 lung; over 100 µM in the assay with ACHN renal; over 100 µM in the assay with SNB-19 CNS; over 100 µM in the assay with T-47D breast; 3.94 µM in the assay with UACC-62 melanoma; over 100 µM with HCC-2998 colon.
For the compound `O=C(NN1C(=O)CSC1c1ccc(Cl)c(Cl)c1)c1ccncc1` (stereo not drawn), the TGI in the assay on HL-60(TB) leukemia, in the assay with OVCAR-5 ovarian, in the assay on ACHN renal, with SNB-19 CNS, in the assay with UO-31 renal and with UACC-62 melanoma was over 100 µM each time. For the same compound, the TGI in the assay on HCC-2998 colon was over 100 µM.
